“Also recorded” adds a separate entry of the source. Where two headings read alike, the source gives them in different places.
Experiments:
LSD1 = settings: H3K4me2 model peptide substrate, Ki/M, read-out: Ki (Ki app), Table S4, cited from earlier work
Source text: Comparative (Ki app) data of peptide sequences that inhibit LSD1-catalytzed demethylation on a H3K4me2 model (peptide) substrate.

ΔN LSD1-CoREST [1] = biological target: T1, ΔN LSD1-CoREST (Homo sapiens, UniProt O60341+Q9UKL0); test: Horseradish peroxidase (HRP) coupled demethylase assay on 21 a.a. H3K4me2 peptide substrate; assay type: biochemical; settings: for effect of peptide on LSD1 demethylation activity (absorbance vs time): 10 μM peptide, 10 μM H3K4me2 21 aa substrate; for effect of peptide on LSD1 demethylation activity (absorbance vs time) / Ki: 0.3 μM ΔN LSD1-CoREST; for effect of peptide on LSD1 demethylation activity (absorbance vs time) / Ki / acts as substrate of LSD1: HRP-coupled assay; for Ki: H3K4me2 (1-21) peptide 10-60 μM, 50 mM Hepes pH 7.5, 25 °C, competitive fit, N = 2, read-out: inhibition constant Ki (Ki app) on H3K4me2 peptide substrate; for fold weaker inhibition (Ki) compared to the NLS peptide: 21 aa H3K4me2 model peptide substrate; for acts as substrate of LSD1: 10 μM peptide alone
T1 construct: The N terminally truncated (aa 171–852) LSD1 plasmid (pGEX-6P-1-ΔN LSD1); GST (cleaved yes); made in house; host or cells: E. coli Rosetta (DE3) pLysS, co-expression
Method: An inhibition study was performed using horseradish peroxidase (HRP) coupled demethylase assay in the presence of NLS, P1, or P2 peptides, using the 21 a.a H3K4me ([2]) peptide as substrate ([9], [38]). […] When a full inhibition study was performed using different concentrations of the 21 a.a. […] Control experiments indicate that the NLS peptide directly influences the LSD1 catalyzed reaction and that inhibition is not an artifact of the HRP-coupled assay system (Fig. S8).
LSD1-CoREST activity assays were performed using well-established peroxidase-coupled assay that monitors H2O2 production under aerobic conditions ([48]). Initial velocity measurements were measured using a Shimadzu UV2600 UV-Visible spectrophotometer equipped with thermostated cell holder (T = 25 °C). ΔN LSD1-CoREST was buffer exchanged into 25 mM Hepes pH 7.4, 100 mM NaCl, and 5 mM TCEP buffer. Each 150 μl reaction mixture contained 50 mM Hepes (Na) pH 7.5, 0.3 μM ΔN LSD1-CoREST, 1 μg of HRP, 0.1 mM 4-aminoantipyrine, and contained various substrate concentrations (10, 20, 30, 40, and 60 μM). Enzyme reactions were initiated by the addition of substrate; H3K4me2 peptide aa 1 to 21 or the NLS-K114me2 peptide (107–120, dimethylated at K114), into the reaction mixture in quartz cuvette. Activity region monitored was 0 to 30 s, and total time of each measurement was 180 s. Baseline correction was done at 505 to 525 nm. Changes in absorbance were measured at 515 nm wavelength and initial velocity calculations were done using an extinction coefficient of 26,000 M^−1 cm^−1 by Graphpad Prism (http://www.graphpad.com). Initial velocity values obtained from absorbance versus time graph, and they were fitted to Michaelis-Menten equation nonlinear regression and obtained Vmax (maximum velocity), apparent kmax (turnover number) and Km (Michaelis constant).
Peptide inhibition assays in presence of model substrate were conducted as follows using a peroxidase-coupled assay that monitors H2O2 production under aerobic conditions. A 150 μl reaction mixture contained 50 mM Hepes (Na) pH 7.5, 0.3 μM ΔN LSD1-CoREST, 1 μg of HRP, 0.1 mM 4-aminoantipyrine, 1.0 mM 3,5-dichloro-2- hydroxybenzenesulfonic acid, NLSK114me2 10 μM (as inhibitor and substrate)/NLSp∗ 10 μM/NLS 10 μM/P1 10 μM/P2 10 μM and H3K4me2 21aa substrate 10 μM. Enzyme reactions were initiated by the addition of substrate; H3K4me2 peptide aa (1–21) into the reaction mixture in quartz cuvette. Initial velocity values obtained from absorbance versus time graph were fitted to inhibition models using nonlinear regression fit. Complete kinetics profiles were performed for the NLS and NLSp∗ peptides, where different concentrations of NLS (0, 2.5 μM, 5 μM, 10 μM) or NLSp∗ (0, 10 μM, 40 μM, 100 μM) were incubated with freshly prepared ΔN LSD1-CoREST.

ΔN LSD1-CoREST [2] = biological target: T1, ΔN LSD1-CoREST; test: Quantitative Western blot assay of demethylation on H3K4me2 nucleosome substrates in presence of NLS peptide; assay type: biochemical; settings: 2 μM ΔN LSD1-CoREST, 100 nM H3K4me2 nucleosome (147 bp DNA), 50 mM Hepes pH 8.0, 50 mM KCl, 25 °C, from relative kobs, Hill coefficient set to 1, N = 2; read-out: IC50 for inhibition of demethylation on H3K4me2 nucleosome substrates
Source text: Based on these coupled assay results and data (Fig. 2, C and D), we developed an in vitro quantitative WB assay to monitor LSD1-catalyzed demethylation on H3K4me2 nucleosome substrates. This approach provides enhanced reliability of the antibody reagents as well as a robust measure of the impact of the NLS peptide on LSD1’s ability to demethylate nucleosomes ([39]). A series of time-course assays with increasing NLS peptide measured the fraction of demethylated H3K4me2 nucleosomes containing a 147 bp DNA, and this was visualized using an anti-H3K4me2-specific antibody or a control H3 antibody (Fig. 4, B and C). Here, dividing the H3K4me2 antibody signal by the H3 antibody signal allowed for quantitation of each data point, where the disappearance of H3K4me2 signal directly corresponds to the NLS's ability to impact LSD1’s demethylation activity. The H3K4me2/H3 ratios were normalized at time zero and plotted as a function of time (minutes), and the determined rate constant (kobs) values were evaluated at increasing NLS concentrations (Fig. 4, B and C).
Quantitative WB activity assays of the ΔN LSD1- CoREST and FL-LSD1- CoREST at 2, 5, 10, and 20 μM concentrations were performed in reaction conditions containing 50 mM Hepes (pH 8.0), 50 mM KCl, 5% glycerol, and 1 mM TCEP and were initiated with 100 nM nucleosome substrate. […]

PRSFLVRKPSDPNRKPNYSE [SNAIL (1-20)]
Ki (LSD1; supplement numbering ref 4): 0.21 µM

YSEEERNAKAEKEKK [P2, neutral-charged α-helical containing LSD1 peptide region a.a; 137–151]
effect of peptide on LSD1 demethylation activity (absorbance vs time) (ΔN LSD1-CoREST [1]): do not inhibit; also recorded: did not influence the demethylation reaction

ARTKmeQTARKSpTGGKAPRKQLA [H3(1-21) K4me S10p]
Ki (LSD1; supplement numbering ref 5, 6): 31 µM

CC(=O)NCC(=O)N[C@@H](CCCNC(=N)N)C(=O)N[C@@H](CCCNC(=N)N)C(=O)N[C@H](C(=O)N[C@@H](CO)C(=O)N[C@@H](CCCNC(=N)N)C(=O)N[C@@H](CCCNC(=N)N)C(=O)N[C@@H](CCCCN)C(=O)N[C@@H](CCCNC(=N)N)C(=O)N[C@@H](C)C(=O)N[C@@H](CCCCN)C(=O)N[C@H](C(=O)N[C@@H](CCC(=O)O)C(=O)N[C@@H](Cc1ccc(O)cc1)C(N)=O)C(C)C)[C@@H](C)O [NLS]
effect of peptide on LSD1 demethylation activity (absorbance vs time) (ΔN LSD1-CoREST [1]; listed as NLS peptide): inhibits LSD1; also recorded: both inhibit LSD1 activity; also recorded: acted as an inhibitor
Ki (ΔN LSD1-CoREST [1]): 3.3 ± 0.6 µM
mode of inhibition (ΔN LSD1-CoREST [1]; Lineweaver Burk plot, 0-10 μM NLS peptide, H3K4me2 peptide substrate): competitive inhibition; also recorded: competitive inhibitor
IC50 (ΔN LSD1-CoREST [2]): 30.4 ± 3.2 µM

QTARKSTGGKAPRKQLA [H3(5-21), histone H3 peptide residues 5-21]
Ki (LSD1; supplement numbering ref 5, 6): 87 µM

REMDESLANLSEDEYY [P1, negatively charged LSD1 peptide region a.a; 121–136]
effect of peptide on LSD1 demethylation activity (absorbance vs time) (ΔN LSD1-CoREST [1]): do not inhibit; also recorded: did not influence the demethylation reaction

PRGFLVKRSKKSTPVSYRVR [INSM1 (1−20)]
Ki (LSD1; supplement numbering ref 4): 0.24 µM

Ac-GRRDDRRKRAKVEY-NH2 [NLS-p∗]
effect of peptide on LSD1 demethylation activity (absorbance vs time) (ΔN LSD1-CoREST [1]): do not obstruct LSD1-catalyzed demethylation
effect of peptide on LSD1 demethylation activity (absorbance vs time) (ΔN LSD1-CoREST [1]; listed as NLSp*): does not inhibit LSD1-catalyzed
fold weaker inhibition (Ki) compared to the NLS peptide (ΔN LSD1-CoREST [1]): approximately 12 fold
fold weaker inhibition (Ki) compared to the NLS peptide (ΔN LSD1-CoREST [1]; listed as NLSp*): 10 fold
Ki (ΔN LSD1-CoREST [1]): 38.7 ± 1.8 µM

ARTKmeQTARmeKSTGGKAPRKQLA [H3(1-21)K4meR8me]
Ki (LSD1; supplement numbering ref 7): 100 µM

GRRTSRRKme2RAKVEY [NLS-K114me2, dimethylated K114 NLS peptide, aa 107–120]
acts as substrate of LSD1 (ΔN LSD1-CoREST [1]): does not serve as a substrate
acts as substrate of LSD1 (ΔN LSD1-CoREST [1]; listed as NLS K114me2): does NOT act as a substrate of LSD1
effect of peptide on LSD1 demethylation activity (absorbance vs time) (ΔN LSD1-CoREST [1]): inhibition of demethylation activity was retained
effect of peptide on LSD1 demethylation activity (absorbance vs time) (ΔN LSD1-CoREST [1]; listed as NLS K114 me2): both inhibit LSD1 activity

ARTKpropQTARKSTGGKAPRKQLA [H3(1-21) K4propargylamine]
Ki (LSD1; supplement numbering ref 9): 16.6 µM

ARTKQTARKSTG [H3 (1−12), histone H3 peptide residues 1-12]
Ki (LSD1; supplement numbering ref 5, 6): 199 µM
